Measurements as given in patent publication US20080293048A1, “METHODS AND KITS BASED ON UGT1A7 PROMOTER POLYMORPHISM” (priority 2004, published 2008).

How the values were obtained:
UGT1A7 = target: T1, UGT1A7 (Homo sapiens, UniProt Q9HAW7); conditions: stated as known; cited from earlier work
T1 construct: expressed in transfected cells; host or cells: HEK293
T1 sequence (Q9HAW7 26-530): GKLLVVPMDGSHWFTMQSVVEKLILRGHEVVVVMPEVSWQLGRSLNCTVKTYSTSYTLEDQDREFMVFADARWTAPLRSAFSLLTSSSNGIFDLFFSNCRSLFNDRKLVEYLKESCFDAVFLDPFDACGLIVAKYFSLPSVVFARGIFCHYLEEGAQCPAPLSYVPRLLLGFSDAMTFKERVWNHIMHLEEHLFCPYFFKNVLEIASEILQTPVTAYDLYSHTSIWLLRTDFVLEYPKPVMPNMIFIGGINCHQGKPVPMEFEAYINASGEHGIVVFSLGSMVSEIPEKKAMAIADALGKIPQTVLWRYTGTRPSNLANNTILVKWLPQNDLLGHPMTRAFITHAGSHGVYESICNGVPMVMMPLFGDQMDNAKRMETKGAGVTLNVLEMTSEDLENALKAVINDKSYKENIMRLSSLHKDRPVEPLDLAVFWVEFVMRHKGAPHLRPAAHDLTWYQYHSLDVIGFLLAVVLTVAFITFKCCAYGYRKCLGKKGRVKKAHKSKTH

[1] = background statement; cited from earlier work
[2] = tested on: patients with metastatic colorectal cancer; conditions: human, in vivo
Protocol: The aim of this study was to assess adverse events, dose reductions and clinical outcome. In both treatment arms 80 mg/m^2 of CPT-11 were administered intravenously over 30 minutes on day 1, 8, 15, 22, 29 and 36 and the cycle repeated after day 50. In arm A of the FIRE study FA (500 mg/m^2, 120 min. infusion) and 5-FU (2000 mg/m^2, 24 h infusion) were co-administered on days 1, 8, 15, 22, 29, 36, and in arm B oxaliplatin (85 mg/m^2, 120 min infusion) were co-administered on day 1, 15 and 29. At the beginning of each treatment cycle adverse events and clinical symptoms were documented. Patients with known Gilbert's disease were excluded from this study. The following adverse events were analyzed: diarrhea within 24 h and later than 24 after administration of CPT-11, loss of body weight more than 5%, anemia, thrombocytopenia, and leukopenia. The intensity of adverse events was classified according to the WHO-Adverse Reaction Terminology with scores from “0”—“no adverse events” to 4—“life-threatening adverse events”. If the CPT-11 dose had to be reduced to less than 80%, dose reduction was documented at each cycle. Genomic DNA from full blood of all patients was isolated as described before and genotyped after written informed consent was obtained. The study was approved by the local ethics committees.
All genotyping studies were performed in a blinded fashion without prior knowledge of the clinical data of the analyzed patient. Approximately 10 ng of genomic DNA were used as a template in Taqman 5′-nuclease assays. Primers and probes specific for each SNP were designed with Primer Express Software (Applied Biosystems) and labelled with either 6-FAM or VIC as reporter dyes and MGB-NFQ (Applied Biosystems) as a quencher as described in Lankisch et al., Mol. Pharmacol, 2005, 67(5); 1732-1739. The Taqman assays were performed using 600 nM primer concentrations and 200 nM probe concentrations (Applied Biosystems) and qPCR Mastermix Plus (Eurogentec, Seraing, Belgium). The run consisted of a hot start at 95° C. for 10 minutes and 35 cycles of 94° C. for 15 sec. and 61° C. for 1 min. All assays were performed in 25 μl reactions in 96-well trays using an ABI 7000 instrument (Applied Biosystems). UGT1A1*28 was determined by Oncoscreen, Jena, Germany.
Patients were classified according to the number of SNPs determined at the UGT1A1*28, UGT1A7 −57 T/G and UGT1A7 N129K/R131K gene loci. In the absence of allelic variants patients were classified as “low risk”, whereas high risk patients were defined if at least one allele of the allelic variant of each analyzed gene locus was present. If only one or two allelic variants were detected at the UGT1A1 or UGT1A7 gene locus, patients were classified as “intermediate risk”. […] Frequency and intensity of the adverse events were compared between the risk groups defined above by Cochran-Mantel-Haenszel statistics using modified ridit scores. The risk groups were also compared by multivariant analysis (non-parametric Weil-Lachin procedure) for differences in intensity of 5 adverse events simultaneously. […] This test leads to values between 0 and 1 with 0.5 characterizing equal chances, which would indicate no difference in the comparison of these patients. The analysis of incidence and intensity of adverse events was based on the documented 297 treatment cycles involving all 105 patients. The Chi-Square test was used for statistical analysis of CPT-11 dose reductions. P-values were not adjusted for multiple testing. All statistical analyses were calculated by an independent statistician who was not involved in patient treatment or genotyping (Estimate GmbH, Augsburg, Germany).

Structure (SMILES)	specific activity of UGT1A7 with SN-38 compared with UGT1A1 (UGT1A7)	activity higher than irinotecan [1]	Leukopenia WHO Grade 1, % [2] [%]	Leukopenia WHO Grade 1, n treatment cycles [2]	Thrombocytopenia WHO Grade 2, % [2] [%]	Thrombocytopenia WHO Grade 2, n treatment cycles [2]	Thrombocytopenia WHO Grade 3, % [2] [%]	Thrombocytopenia WHO Grade 3, n treatment cycles [2]	diarrhea <24 h WHO Grade 3, % of treatment cycles [2]	diarrhea <24 h WHO Grade 3, N treatment cycles [2]	leukopenia WHO Grade 4, % of treatment cycles [2] [%]	leukopenia WHO Grade 4, N treatment cycles [2]	thrombocytopenia WHO Grade 2, % of treatment cycles [2] [%]	thrombocytopenia WHO Grade 2, N treatment cycles [2]	thrombocytopenia WHO Grade 3, % of treatment cycles [2]	thrombocytopenia WHO Grade 3, N treatment cycles [2]	overall incidence of adverse events, Mann Whitney test ([2]; 50 days)	Leukopenia WHO Grade 4, % ([2]; 50 days (one treatment cycle)) [%]	Leukopenia WHO Grade 4, n treatment cycles ([2]; 50 days (one treatment cycle))
CCc1c2c(nc3ccc(O)cc13)-c1cc3c(c(=O)n1C2)COC(=O)[C@]3(O)CC [SN-38, 7-ethyl-10-hydroxycamptothecin]	five-hold higher	100-1000 fold	–	–	–	–	–	–	–	–	–	–	–	–	–	–	–	–	–
CCc1c2c(nc3ccc(OC(=O)N4CCC(N5CCCCC5)CC4)cc13)-c1cc3c(c(=O)n1C2)COC(=O)[C@]3(O)CC [irinotecan]	–	–	21	10	3	5	1	1	1 (1%)	1 (1%)	1	2	3	5	1 (1%)	1 (1%)	0.5511	1	2
